Assay results as given in PMC11525196 (Nature, 2024).
Changes are numbered by the printed parent chain.

Key:
Assay in all cases: SPR steady-state affinity
Format in all cases: binding
LYCHOS (GPR155) [1] = target: T1, LYCHOS (GPR155) (Homo sapiens, UniProt Q7Z3F1)
T1 sequence (Q7Z3F1 1-870): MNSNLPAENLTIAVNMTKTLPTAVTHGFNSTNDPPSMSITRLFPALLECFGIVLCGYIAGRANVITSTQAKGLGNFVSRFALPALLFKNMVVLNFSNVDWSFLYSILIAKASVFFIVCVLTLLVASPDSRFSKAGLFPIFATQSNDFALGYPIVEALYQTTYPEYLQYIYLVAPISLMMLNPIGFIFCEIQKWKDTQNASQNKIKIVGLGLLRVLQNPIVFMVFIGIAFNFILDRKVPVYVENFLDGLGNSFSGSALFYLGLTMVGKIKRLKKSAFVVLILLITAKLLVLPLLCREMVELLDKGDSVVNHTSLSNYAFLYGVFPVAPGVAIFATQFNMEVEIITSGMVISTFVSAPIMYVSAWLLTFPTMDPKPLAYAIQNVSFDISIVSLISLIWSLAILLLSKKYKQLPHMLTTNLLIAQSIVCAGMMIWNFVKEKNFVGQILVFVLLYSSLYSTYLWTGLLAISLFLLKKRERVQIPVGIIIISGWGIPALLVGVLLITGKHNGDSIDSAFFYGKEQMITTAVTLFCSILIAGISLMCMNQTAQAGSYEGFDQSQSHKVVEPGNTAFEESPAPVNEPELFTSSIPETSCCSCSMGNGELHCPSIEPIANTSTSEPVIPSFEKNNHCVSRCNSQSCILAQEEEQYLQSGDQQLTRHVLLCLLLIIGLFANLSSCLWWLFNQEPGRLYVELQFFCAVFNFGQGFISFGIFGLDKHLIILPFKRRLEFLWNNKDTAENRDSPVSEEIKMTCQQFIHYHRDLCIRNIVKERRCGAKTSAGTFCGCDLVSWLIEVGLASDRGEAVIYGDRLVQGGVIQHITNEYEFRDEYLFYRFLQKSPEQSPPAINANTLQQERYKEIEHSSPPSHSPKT

LYCHOS (GPR155) [2] = target: T2, LYCHOS (GPR155) (Homo sapiens, UniProt Q7Z3F1, N145A)
T2 sequence (Q7Z3F1 1-870 N145A): T1 sequence (Q7Z3F1 1-870) with N145A

LYCHOS (GPR155) [3] = target: T3, LYCHOS (GPR155) (Homo sapiens, UniProt Q7Z3F1, L177W)
T3 sequence (Q7Z3F1 1-870 L177W): T1 sequence (Q7Z3F1 1-870) with L177W

LYCHOS (GPR155) [4] = target: T4, LYCHOS (GPR155) (Homo sapiens, UniProt Q7Z3F1, A148W)
T4 sequence (Q7Z3F1 1-870 A148W): T1 sequence (Q7Z3F1 1-870) with A148W

**Q.** What does the source list for O=C(O)Cc1c[nH]c2ccccc12 [IAA, Indole-3-acetic acid]?
**A.** Kd (LYCHOS (GPR155) [1]): 1.62 mM; Kd (LYCHOS (GPR155) [2]): 5.49 mM; Kd (LYCHOS (GPR155) [3]): 3.93 mM; Kd (LYCHOS (GPR155) [4]): 3.38 mM
